Measurements: publication PMC11199504, “New hemisynthetic derivatives of sphaeropsidin phytotoxins triggering severe endoplasmic reticulum swelling in cancer cells” (Scientific Reports, 2024)

What was measured:
[1] = tested on: 60 cancer cell line panel; conditions: NCI database value; ref NCI database; read-out: LC50 (NCI); cited from earlier work
Hs683 = experiment: MTT colorimetric assay, Hs683; type: cell-based; conditions: Homo sapiens, Hs 683; 72 h treatment; mean ± SEM; sensitive to apoptosis; read-out: IC50 determined by MTT assays, Hs683
Excerpt: (§1) Cancer cell lines were obtained from either the European Collection of Cell Cultures (ECACC; Salisbury, UK) or the American Type Culture Collection (ATCC; Manassas, VA). The two glioma cell lines were the U373 (ECACC code 08061901) and Hs683 (ATCC HTB-138) cell lines. The carcinoma cell lines were the A549 non-small cell carcinoma cell line (ATCC code CCL 185) and the MCF-7 mammary breast carcinoma cell line (ATCC code HTB-22). The melanoma cell lines were the mouse B16F10 cells (ATCC code CRL-6475) and the human SKMEL-28 cells (ATCC code HTB-72). The ovarian cancer cell line A2780 and its cisplatin-resistant subline A2780cis were obtained from Sigma-Aldrich (St. Louis, MO, USA). Colon cancer HCT116 cells were obtained from ATCC (CCL-247) and the oxaliplatin-resistant subline HCT116/OxR established in the W. Berger lab[59]. The HeLa cell derivative KB-3-1 and the colchicine-selected, highly ABCB1-overexpressing subline KB-C-1 were generously donated by Dr. D. W. Shen, Bethesda, MD. RKOp53wt colon cancer cells together with the RKOp53KO (homozygous knock-out) subline[60] were generously provided by Dr. Vogelstein from John Hopkins University, Baltimore. The correct origin of all cell models was confirmed by STR during performance of the experiments. All cell lines were cultured in RPMI1640 culture medium supplemented with 10% heat-inactivated fetal bovine serum, 2% L-glutamine (0.6 mg/mL), 2% penicillin/streptomycin (200 IU/mL and 200 μg/mL) and 0.1 mg/mL gentamicin.
(§2) The MTT (3-(4,5-dimethylthiazol-2-yl)-2,5-diphenyl tetrazolium bromide) colorimetric assay has been conducted as described previously. Briefly, cells were seeded 24 h before their treatment with each compound for a period of 72 h. The concentrations tested ranged from 10 nM to 100 µM. Each assay was conducted in sextuplicates. The number of independent experiments is mentioned in the legend of the tables.

[2] = tested on: A549, SKMEL-28, U373, MCF7, Hs683, B16F10; experiment: MTT colorimetric assay, mean of the six cell lines; type: cell-based; conditions: 72 h, mean over the six cell lines; 72 h treatment; read-out: IC50 determined by MTT assays, Mean
Excerpt: as §1, §2

B16F10 = experiment: MTT colorimetric assay, B16F10; type: cell-based; conditions: Mus musculus, B16-F10; 72 h treatment; mean ± SEM; sensitive to apoptosis; read-out: IC50 determined by MTT assays, B16F10
Excerpt: as §1, §2

SKMEL-28 = experiment: MTT colorimetric assay, SKMEL-28; type: cell-based; conditions: Homo sapiens, SK-MEL-28; 72 h treatment; mean ± SEM; resistant to apoptosis; read-out: IC50 determined by MTT assays, SKMEL-28
Excerpt: as §1, §2

MCF7 = experiment: MTT colorimetric assay, MCF7; type: cell-based; conditions: Homo sapiens, 72 h treatment, mean ± SEM, sensitive to apoptosis, read-out: IC50 determined by MTT assays, MCF7
Excerpt: as §1, §2

A549 = experiment: MTT colorimetric assay, A549; type: cell-based; conditions: Homo sapiens, 72 h treatment, mean ± SEM of six replicates of one experiment (1: 7, 13: 6 independent experiments), resistant to apoptosis, read-out: IC50 determined by MTT assays, A549
Excerpt: as §1, §2

U373 = experiment: MTT colorimetric assay, U373; type: cell-based; conditions: Homo sapiens, U373 MG; 72 h treatment; mean ± SEM; resistant to apoptosis; read-out: IC50 determined by MTT assays, U373
Excerpt: as §1, §2

[3] = tested on: SKMEL-28 melanoma and U373 glioblastoma cells; experiment: Morphological evaluation by phase contrast microscopy / videomicroscopy; type: cell-based, human; conditions: videomicroscopy in SKMEL-28 cells
Procedure: For the morphological evaluation of the effects induced by compounds 1 and 13, 6 × 10^4 cells were seeded on glass coverslips placed in 6 well plates a minimum 24 h before their treatment. At the end of the incubation period with the treatment, coverslips were rinsed once in PBS buffer and directly mounted on slides to allow visualization of the cell with an Axio.Imager.M2 microscope (G X40 and G X100).

A2780R = experiment: MTT assay, A2780R (cisplatin-resistant); type: cell-based; conditions: 72 h treatment; ± standard deviation; drug-resistant model; read-out: IC50 determined by MTT assays, A2780R
Excerpt: as §1, §2
(§3) SI Table 1: IC50 determined by MTT assays. Mean concentration (± standard deviation) in µM required to
(§4) reduce the viability of cells by 50% after a 72 h treatment relative to the control.
(§5) Parental sensitive models Drug-resistant models

A2780 = experiment: MTT assay, A2780 (parental sensitive); type: cell-based; conditions: 72 h treatment; ± standard deviation; parental sensitive model; read-out: IC50 determined by MTT assays, A2780
Excerpt: as §1, §2, §3, §4, §5

RKO/p53ko = experiment: MTT assay, RKO/p53ko; type: cell-based; conditions: 72 h treatment; ± standard deviation; drug-resistant model; read-out: IC50 determined by MTT assays, RKO/p53ko
Excerpt: as §1, §2, §3, §4, §5

RKO/P53wt = experiment: MTT assay, RKO/P53wt (parental sensitive); type: cell-based; conditions: 72 h treatment; ± standard deviation; parental sensitive model; read-out: IC50 determined by MTT assays, RKO/P53wt
Excerpt: as §1, §2, §3, §4, §5

Hct116 = experiment: MTT assay, Hct116 (parental sensitive); type: cell-based; conditions: 72 h treatment; ± standard deviation; parental sensitive model; read-out: IC50 determined by MTT assays, Hct116
Excerpt: as §1, §2, §3, §4, §5

Hct116/OxR = experiment: MTT assay, Hct116/OxR (oxaliplatin-resistant); type: cell-based; conditions: 72 h treatment; ± standard deviation; drug-resistant model; read-out: IC50 determined by MTT assays, Hct116/OxR
Excerpt: as §1, §2, §3, §4, §5

KB-C-1 = experiment: MTT assay, KB-C-1 (ABCB1-overexpressing); type: cell-based; conditions: KBC-1, 72 h, read-out: IC50 determined by MTT assays, KB-C-1
Excerpt: as §1, §2, §3, §4, §5

KB-3-1 = experiment: MTT assay, KB-3-1 (parental sensitive); type: cell-based; conditions: Homo sapiens, KB 3-1, 72 h, read-out: IC50 determined by MTT assays, KB-3-1
Excerpt: as §1, §2, §3, §4, §5

SMILES | IC50 [2] [nM] | IC50 (B16F10) [nM] | IC50 (SKMEL-28) [nM] | IC50 (MCF7) [nM] | IC50 (A549) [nM] | IC50 (Hs683) [nM] | IC50 (U373) [nM] | further results
CNC(=O)ON(C(C)=O)C(=O)NC [Caracemide] | – | – | – | – | – | – | – | CC50 [1]: 625000 nM
C#CCCCC(=O)OC12OC(=O)C3(CCCC(C)(C)C13)C1(O)CCC(C)(C=C)C=C1C2=O (stereo not shown) [Compound 3] | 2750 ± 210 | 2600 ± 70 | 2560 ± 90 | 3720 ± 270 | 2400 ± 100 | 2830 ± 130 | 2370 ± 90 | delay in the cellular shrinkage versus SphA 1 [3]: ≥ 24 h
CC1(C=CCCCCc2ccc3ccc4cccc5ccc2c3c45)C=C2C(=O)C3(O)OC(=O)C4(CCCC(C)(C)C34)C2(O)CC1 (stereo not shown) [Compound 23] | 490 ± 70 | 270 ± 10 | 370 ± 10 | 420 ± 30 | 600 ± 20 | 640 ± 20 | 660 ± 20 | –
CC1(C=CCCc2ccc3ccc4cccc5ccc2c3c45)C=C2C(=O)C3(O)OC(=O)C4(CCCC(C)(C)C34)C2(O)CC1 (stereo not shown) [Compound 24] | 1400 ± 340 | 98 ± 40 | 1300 ± 140 | 1200 ± 200 | 1200 ± 200 | 2400 ± 100 | 2200 ± 200 | –
N.N.[Cl][Pt][Cl] [cisplatin] | – | – | – | – | – | – | – | IC50 (A2780R): > 10000 nM; IC50 (A2780): 1800 ± 90 nM; IC50 (RKO/p53ko): 3700 ± 1200 nM; IC50 (RKO/P53wt): 2000 ± 300 nM
O=C1[O][Pt]2([NH][C@@H]3CCCC[C@H]3[NH]2)[O]C1=O [oxaliplatin] | – | – | – | – | – | – | – | IC50 (Hct116): 600 ± 80 nM; IC50 (Hct116/OxR): 22100 ± 2300 nM
COc1cccc2c1C(=O)c1c(O)c3c(c(O)c1C2=O)C[C@@](O)(C(=O)CO)C[C@@H]3O[C@H]1C[C@H](N)[C@H](O)[C@H](C)O1 [doxorubicin] | – | – | – | – | – | – | – | IC50 (KB-C-1): > 250000 nM; IC50 (KB-3-1): 59 ± 30 nM
CCCCC=CC1(C)C=C2C(=O)C3(O)OC(=O)C4(CCCC(C)(C)C34)C2(O)CC1 (stereo not shown) [Compound 9] | 880 ± 160 | 520 ± 20 | 1150 ± 110 | 470 ± 30 | 630 ± 30 | 1110 ± 140 | 1390 ± 150 | –

Now from value to compound, other results behind:

IC50 [2] [nM] | IC50 (B16F10) [nM] | IC50 (SKMEL-28) [nM] | IC50 (MCF7) [nM] | IC50 (A549) [nM] | SMILES | IC50 (Hs683) [nM] | IC50 (U373) [nM] | further results
1700 ± 190 | 780 ± 90 | 1610 ± 110 | 2090 ± 70 | 1920 ± 70 | C=CC1(C)C=C2C(=O)C3(OC(=O)CCCCC(=O)O)OC(=O)C4(CCCC(C)(C)C34)C2(O)CC1 (stereo not shown) [Compound 5] | 1960 ± 180 | 1820 ± 140 | –
2100 ± 110 | 1880 ± 100 | 2290 ± 170 | 1950 ± 140 | 1760 ± 290 | C=CC1(C)C=C2C(=O)C3(OC(=O)c4ccccc4)OC(=O)C4(CCCC(C)(C)C34)C2(O)CC1 (stereo not shown) [Compound 4] | 2500 ± 120 | 2190 ± 70 | delay in the cellular shrinkage versus SphA 1 [3]: ≥ 24 h
2640 ± 200 | 1810 ± 140 | 2740 ± 130 | 2480 ± 130 | 2660 ± 40 | COC(=O)CCCC=CC1(C)C=C2C(=O)C3(O)OC(=O)C4(CCCC(C)(C)C34)C2(O)CC1 (stereo not shown) [Compound 6] | 3330 ± 100 | 2810 ± 80 | –
3790 ± 540 | 2000 ± 120 | 3070 ± 100 | 5360 ± 580 | 2960 ± 120 | CC1(C=CCCCCBr)C=C2C(=O)C3(O)OC(=O)C4(CCCC(C)(C)C34)C2(O)CC1 (stereo not shown) [Compound 10] | 4350 ± 270 | 5010 ± 180 | –
